Data: publication PMC11869560, “Anticancer and cancer preventive activities of shogaol and curcumin from Zingiberaceae family plants in KG-1a leukemic stem cells” (BMC Complementary Medicine and Therapies, 2025)
In brackets after ≈: the same amount, converted by molar mass. Read-outs that look alike come from different tables or passages of the source.

Tests used:
Type in all cases: cell-based, human
[1] = test system: KG-1a cells; assay: MTT cytotoxicity assay in KG-1a cells; conditions: for IC50 / IC20: Homo sapiens, KG-1a; for IC20: read-out: IC20 KG-1a (inhibitory concentration at 20% growth); for Selectivity index (SI): IC50 for normal cells (PBMCs) / IC50 for cancer cells (KG-1a)
Experimental: (§1) MTT (3-(4,5-dimethylthiazol-2-yl)-2,5-diphenyltetrazolium bromide) assay was used to investigate the cytotoxicity of the test samples. KG-1a (1.5 × 10^4 cells/well), K562 (1.0 × 10^4 cells/well), PBMCs (1.0 × 10^5 cells/well), A549 (5.0 × 10^3 cells/well), MCF-7 (5.0 × 10^3 cells/well), and HeLa (5.0 × 10^3 cells/well) were seeded into a 96-well plate and incubated overnight at 37 °C with 5% CO2. […] After that, 5 mg/mL of MTT dye solution (Sigma-Aldrich, MA, USA) was added and incubated for 4 h. The produced formazan crystals were dissolved in 200 µL of DMSO (Sigma-Aldrich, MA, USA); then, the optical density (OD) was measured using an ELISA plate reader (Metertech, Taipei, Taiwan) at 578 nm with a reference wavelength of 630 nm. The percentage of surviving cells was calculated from the absorbance values of the test and control wells using the following Equation. 1 [drawing 1]
(§2) where ODsample is a mean absorbance in test well and ODvehicle control is a mean absorbance in VC well. The average percentage of surviving cells at each concentration obtained from triplicate experiments was plotted as a dose-response curve. Inhibitory concentration values at 50% growth (IC50 value) were defined as the lowest concentration of the test sample that inhibited cell growth by 50% compared to the untreated control.
(§3) To calculate IC50 values, a dose-response curve was fitted using non-linear regression analysis, as described in the GraphPad Prism guidelines (https://www.graphpad.com/support/faq/how-to-determine-an-icsub50sub/). The IC50 value was obtained by determining the point at which the curve intersected 50% growth inhibition. Non-linear regression graphs of the dose-response curve for each compound are provided in the supplementary data file (Figs. S1–S8).
where IC50 N is IC50 for normal cells and IC50 C is IC50 for cancer cells which were treated with the same compounds in both cells.

[2] = test system: PBMCs; assay: MTT cytotoxicity assay in PBMCs; conditions: Homo sapiens, PBMC; for IC20: incubation for 48 h, read-out: IC20 PBMCs (inhibitory concentration at 20% growth)
Experimental: PBMCs were isolated from blood samples using the Ficoll-Hypaque technique. Initially, 10–20 mL of blood was collected in a heparin tube at a ratio of 1:500 from a minimum of three healthy volunteers. Subsequently, the blood samples were diluted with Phosphate buffer saline (PBS), pH 7.4, at a ratio of 1:1 to reduce viscosity. Histopaque-1077 (Sigma-Aldrich, MA, USA) was then underlaid the diluted sample and centrifuged at 400×g for 30 min. The resulting PBMCs were collected, washed with PBS, pH 7.4, and prepared for further experiments.
as §1, §2, §3

[3] = test system: WT1 protein expression in KG-1a cells; assay: WT1 protein expression in KG-1a cells by Western blotting
Experimental: KG-1a cells (1.5 × 10^5 cells/mL) were treated with compounds or extracts at different incubation times. Then, the cells were harvested and the whole proteins were extracted using a RIPA buffer (25 mM Tris-base, pH 7.6, 0.1% SDS, 1% Triton X-100, 150 mM NaCl, and 1 mM EDTA). The protein concentration was measured using the Folin-Lowry or Bradford assay. The whole protein lysates (30 µg/lane) were then separated through 7.5% SDS-PAGE under reducing conditions and then transferred to PVDF membranes. The membranes were blocked in 5% skim milk in PBS, pH 7.4 at RT for 2 h, then, target proteins were probed with specific primary antibodies (anti-WT1, anti-CD34, anti-GAPDH, anti-cleaved caspase-3, anti-cleaved PARP, anti-phospho-Akt, anti-phospho-c-Jun, anti-phospho-SAPK/JNK, and anti-YAP/TAZ) indicated in Table S10 which diluted at a ratio of 1:1,000 in PBS, pH 7.4 at RT for 2 h. After incubation, the membranes were rinsed 6 times with 0.1% Tween-20 (Sigma-Aldrich, MA, USA) in PBS, pH 7.4 (PBS-T), each time for 5 min. The reaction was followed by HRP-conjugated secondary antibody at 1:20,000 dilution in PBS, pH 7.4 at RT for 2 h, then, the membranes were rinsed 6 times for 5 min each with PBS-T. The proteins were shown using Immobilon Forte Western HRP substrate (Millipore, MA, USA). Finally, the protein band signal was quantified by using a scan densitometer (Bio-Rad Laboratories, CA, USA).

[4] = test system: KG-1a cells; assay: Cell cycle and apoptosis (sub-G1) assay by flow cytometry in KG-1a cells; conditions: 48 h; for change of cell cycle phase population compared to VC: IC20 concentrations; for G2/M phase population: IC50 concentrations
Experimental: After treating KG-1a cells with active compounds at various concentrations for 48 h, the cells were pulsed with 10 µM BrdU (Sigma-Aldrich, MA, USA) for 20 min at 37 °C in an incubator with 5% CO2. Subsequently, the cells were harvested, washed with ice-cold PBS, pH 7.4 three times, and then fixed with 70% ethanol in PBS, pH 7.4 at −30 °C. Following fixation, the cells were washed and resuspended in 2 N HCl/0.5% Triton X-100 for 30 min at room temperature (RT). Then, 0.1 M sodium tetraborate decahydrate was added for 2 min at RT to neutralize the acid. Subsequently, the cells were stained with FITC-anti-BrdU antibody for 30 min at RT. After washing, the cells were resuspended in propidium iodide (PI) (Dojindo, Kumamoto, Japan) in PBS, pH 7.4 at a ratio of 1:1,000. The cell cycle phases were detected using a flow cytometer (CytoFLEX S, Beckman Coulter, CA, USA) and analyzed with the CytExpert program (Beckman Coulter, CA, USA).
The flow cytometry data were analyzed to assess both apoptosis and cell cycle distribution. Apoptosis was evaluated by determining the percentage of cells in the sub-G1 phase using the Nicoletti assay. For cell cycle analysis, populations in the G1, S, and G2/M phases were calculated after excluding the sub-G1 population to avoid interference from apoptotic cells, allowing for a clearer assessment of cell cycle arrest in different phases. Data were presented in separate graphs for the sub-G1 population and cell cycle phase distributions.

[5] = 48 h, active compounds and drugs, MTT, 48 h, read-out: IC50 KG-1a
[6] = Table S7, KG-1a, first replicate, read-out: IC50 value R1
[7] = Table S7, KG-1a, third replicate, read-out: IC50 value R3
[8] = active compounds and drugs, MTT, 48 h
[9] = Table S8, PBMCs, first replicate, read-out: IC50 value R1
[10] = Table S8, PBMCs, second replicate, read-out: IC50 value R2
[11] = Table S8, PBMCs, third replicate, read-out: IC50 value R3
[12] = active compounds and drugs, MTT, 48 h, read-out: IC50 PBMCs
[13] = IC20 concentrations, 48 h, normalized to GAPDH
[14] = IC20 concentration (nocodazole 6 ng/mL, curcumin 3 µg/mL, shogaol 0.12 µg/mL)
[15] = higher concentrations than IC20

Structure (SMILES)	IC50 [1, 5] [µg/mL]	IC20 ([1]; 48 h, incubation for 48 h) [µg/mL]	IC50 [1, 6] [µg/mL]	IC50 [1, 7] [µg/mL]	Selectivity index (SI) ([1]; 48 h)	IC50 KG-1a [1, 8] [µg/mL]	IC50 [2, 9] [µg/mL]	IC50 [2, 10] [µg/mL]	IC50 [2, 11] [µg/mL]	IC50 [2, 12] [µg/mL]	IC20 [2] [µg/mL]	decrease of WT1 protein level compared to VC [3, 13] [%]	effect on sub-G1 population compared to VC [4, 14]	change of cell cycle phase population compared to VC [4]	G2/M phase population ([4]; sub-G1 excluded) [%]	effect on sub-G1 population compared to VC [4, 15]	also measured
CCCCC/C=C/C(=O)CCc1ccc(O)c(OC)c1 [Shogaol, shogaol]	2.99 ± 0.01 (≈ 10.8 µM)	0.12 (≈ 0.434 µM)	2.98 (≈ 10.8 µM)	2.99 (≈ 10.8 µM)	3.07	3 (≈ 10.9 µM)	8.3 (≈ 30 µM)	9.9 (≈ 35.8 µM)	9.35 (≈ 33.8 µM)	9.18 ± 0.82 (≈ 33.2 µM)	6.06 ± 1.11 (≈ 21.9 µM)	30.71 ± 3.90	did not significantly increase the sub-G1 population	neither curcumin nor shogaol induced significant changes in the cell cycle phase population	31.38 ± 1.60	significant increases in the sub-G1 population	IC50 ([1]; Table S7, KG-1a, mean of R1-R3, read-out: IC50 value Mean): 2.99 µg/mL (≈ 10.8 µM); decrease of WT1 protein level compared to VC ([3]; IC50 concentration, 3 h): 22.58 ± 3.99%; decrease of S phase population ([4]; 1.5 µg/mL, sub-G1 excluded): 40.56 ± 3.82%
COc1cc(/C=C/C(=O)CC(=O)/C=C/c2ccc(O)c(OC)c2)ccc1O [Curcumin, curcumin]	10 (≈ 27.1 µM)	3.51 ± 0.59 (≈ 9.53 µM)	10.4 (≈ 28.2 µM)	10.6 (≈ 28.8 µM)	1.31	10.52 ± 0.12 (≈ 28.6 µM)	13.8 (≈ 37.4 µM)	14.6 (≈ 39.6 µM)	13 (≈ 35.2 µM)	13.8 ± 0.82 (≈ 37.4 µM)	3.72 ± 0.58 (≈ 10.1 µM)	44.05 ± 9.81	did not significantly increase the sub-G1 population	neither curcumin nor shogaol induced significant changes in the cell cycle phase population	43.66 ± 6.75	significant increases in the sub-G1 population	IC50 ([1]; Table S7, KG-1a, second replicate, read-out: IC50 value R2): 10.6 µg/mL (≈ 28.7 µM); Selectivity index (SI) ([1]; 48 h, listed as curcumin): greater than 1; IC20 KG-1a (inhibitory concentration at 20% growth) ([1]; incubation for 48 h): 3 µg/mL (≈ 8.14 µM); decrease of WT1 protein level compared to VC ([3]; IC50 concentration, 6 h): 77.01 ± 8.80%
